Measured values as given in ChEMBL document CHEMBL2321779, “Aminophenoxazinones as inhibitors of indoleamine 2,3-dioxygenase (IDO). Synthesis of exfoliazone and chandrananimycin A” (J Med Chem, 2013).

Legend:
[1] = molecular target: T1, Indoleamine 2,3-dioxygenase 1 (Homo sapiens, UniProt P14902); experiment: Inhibition of human recombinant N-terminus 6X-histidine-tagged indoleamine 2,3-dioxygenase expressed in Escherichia coli assessed as inhibition of L-tryptophan to N-formylkynurenine formation measured as residual enzyme activity at 10 uM incubated for 10 mins prior to substrate addition measured …; values are per cent of control
Target sequence in this assay (P14902 whole entry, looked up): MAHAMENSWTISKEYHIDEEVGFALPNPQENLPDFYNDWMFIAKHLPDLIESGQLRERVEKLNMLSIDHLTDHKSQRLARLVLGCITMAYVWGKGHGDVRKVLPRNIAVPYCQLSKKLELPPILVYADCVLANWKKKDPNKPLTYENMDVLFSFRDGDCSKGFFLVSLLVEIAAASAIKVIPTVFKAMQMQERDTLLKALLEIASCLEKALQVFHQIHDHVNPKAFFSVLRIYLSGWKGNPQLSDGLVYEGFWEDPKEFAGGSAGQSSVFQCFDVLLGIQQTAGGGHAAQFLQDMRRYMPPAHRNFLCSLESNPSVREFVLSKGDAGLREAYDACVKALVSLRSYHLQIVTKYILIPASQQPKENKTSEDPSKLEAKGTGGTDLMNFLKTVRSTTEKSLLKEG

[2] = molecular target: T1, Indoleamine 2,3-dioxygenase 1; experiment: Inhibition of human recombinant N-terminus 6X-histidine-tagged indoleamine 2,3-dioxygenase expressed in Escherichia coli assessed as inhibition of L-tryptophan to N-formylkynurenine formation measured as residual enzyme activity at 0.1 uM incubated for 10 mins prior to substrate addition measured …
Target sequence in this assay (P14902 whole entry, looked up): as above

[3] = molecular target: T1, Indoleamine 2,3-dioxygenase 1; experiment: Inhibition of human recombinant N-terminus 6X-histidine-tagged indoleamine 2,3-dioxygenase expressed in Escherichia coli assessed as inhibition of L-tryptophan to N-formylkynurenine formation measured as residual enzyme activity at 1 uM incubated for 10 mins prior to substrate addition measured …; values are per cent of control
Target sequence in this assay (P14902 whole entry, looked up): as above

[4] = molecular target: T1, Indoleamine 2,3-dioxygenase 1; experiment: Inhibition of human recombinant N-terminus 6X-histidine-tagged indoleamine 2,3-dioxygenase expressed in Escherichia coli assessed as inhibition of L-tryptophan to N-formylkynurenine formation measured as residual enzyme activity incubated for 10 mins prior to substrate addition measured after 30 mins by UV-vis spectrophotometric analysis relative to DMSO-treated control
Target sequence in this assay (P14902 whole entry): as the sequence (P14902 whole entry, looked up) above

Structure (SMILES)	residual activity [1] [%]	residual activity [2] [%]	residual activity [3] [%]	IC50 [4] [nM]	Ki [4] [nM]
COC(=O)c1c2nc3c(C(=O)OC)cccc3oc-2cc(=O)c1N	30	94	60	–	–
Nc1cc2nc3cc(CO)ccc3oc-2cc1=O	80	84	87	–	–
Cc1c2nc3c(C)cccc3oc-2cc(=O)c1N	95	98	100	–	–
COC(=O)c1c2nc3c(C(=O)OC)ccc(C)c3oc-2c(C)c(=O)c1N	24	66	29	–	–
Nc1c(C(=O)O)c2nc3c(C(=O)O)cccc3oc-2cc1=O [CINNABARINIC ACID]	11	71	23	460	326
COC(=O)c1c2nc3cc(CO)ccc3oc-2cc(=O)c1N	34	95	75	–	–
Cc1ccc2oc3cc(=O)c(N)cc-3nc2c1	91	99	100	–	–
CC(=O)Nc1cc2nc3cc(CO)ccc3oc-2cc1=O	74	85	82	–	–
Nc1cc2nc3ccccc3oc-2cc1=O	74	82	94	–	–
Nc1cc2nc3c(O)cccc3oc-2cc1=O	97	100	100	–	–
CC(=O)Nc1cc2nc3c(O)cccc3oc-2cc1=O	92	100	99	–	–
